Assays:
Rattus norvegicus [1] = experiment: Effect on heart rate in anesthetized Wistar rat assessed as QRS complex time at 1 mg/kg, iv after 1 min by electrocardiography; type: functional
Rattus norvegicus [2] = experiment: Effect on heart rate in anesthetized Wistar rat assessed as QRS complex time at 1 mg/kg, iv after 5 mins by electrocardiography; type: functional
Rattus norvegicus [3] = experiment: Effect on heart rate in anesthetized Wistar rat assessed as QRS complex time at 1 mg/kg, iv after 15 mins by electrocardiography; type: functional
Rattus norvegicus [4] = experiment: Effect on heart rate in anesthetized Wistar rat assessed as Q-T intervals time at 1 mg/kg, iv after 1 min by electrocardiography; type: functional
Rattus norvegicus [5] = experiment: Effect on heart rate in anesthetized Wistar rat assessed as Q-T intervals time at 1 mg/kg, iv after 5 mins by electrocardiography; type: functional
Rattus norvegicus [6] = experiment: Effect on heart rate in anesthetized Wistar rat assessed as Q-T intervals time at 1 mg/kg, iv after 15 mins by electrocardiography; type: functional
Rattus norvegicus [7] = experiment: Effect on heart rate in anesthetized Wistar rat assessed as heart beats per min at 1 mg/kg, iv after 1 min by electrocardiography; type: functional
Rattus norvegicus [8] = experiment: Effect on heart rate in anesthetized Wistar rat assessed as heart beats per min at 1 mg/kg, iv after 5 mins by electrocardiography; type: functional
Rattus norvegicus [9] = experiment: Effect on heart rate in anesthetized Wistar rat assessed as heart beats per min at 1 mg/kg, iv after 15 mins by electrocardiography; type: functional
Rattus norvegicus [10] = experiment: Antiarrhythmic activity in Wistar rat assessed as inhibition of adrenaline-induced premature ventricular beats at 1 mg/kg, iv administered 15 mins before adrenaline challenge measured after 15 mins by electrocardiography; type: functional; settings: Heart
[11] = Displacement of [3H]CGP12177 from beta-1 adrenergic receptor in Wistar rat cerebral cortex membrane by liquid scintillation counting; type: tissue-based
Rattus norvegicus [12] = experiment: Effect on heart rate in anesthetized Wistar rat assessed as P-Q intervals time at 1 mg/kg, iv after 1 min by electrocardiography; type: functional
Rattus norvegicus [13] = experiment: Effect on heart rate in anesthetized Wistar rat assessed as P-Q intervals time at 1 mg/kg, iv after 5 mins by electrocardiography; type: functional
Rattus norvegicus [14] = experiment: Effect on heart rate in anesthetized Wistar rat assessed as P-Q intervals time at 1 mg/kg, iv after 15 mins by electrocardiography; type: functional

Structure (SMILES) | Activity (Rattus norvegicus [1]) | Activity (Rattus norvegicus [2]) | Activity (Rattus norvegicus [3]) | Activity (Rattus norvegicus [4]) | Activity (Rattus norvegicus [5]) | Activity (Rattus norvegicus [6]) | Activity (Rattus norvegicus [7]) | Activity (Rattus norvegicus [8]) | Activity (Rattus norvegicus [9]) | ED50 (Rattus norvegicus [10]) | Ki [11] | Activity (Rattus norvegicus [12]) | Activity (Rattus norvegicus [13]) | Activity (Rattus norvegicus [14])
COc1ccccc1OCCNCC(O)COc1cccc2[nH]ccc12 (racemic) | 28.4 ms | 24.9 ms | 26.9 ms | 69.2 ms | 69 ms | 72.8 ms | 298.7 bpm | 294.5 bpm | 287.3 bpm | 0.34 mg/kg | 3 nM | 47.2 ms | 48.1 ms | 46.2 ms
COc1ccccc1OCCNCC(O)COc1cccc2[nH]c3ccccc3c12 (stereo not drawn) [CARVEDILOL] |  |  |  |  |  |  | 345.2 bpm | 340.3 bpm |  | 0.25 mg/kg |  | 50 ms |  | 
